{
  "source": "patent US20070032555A1",
  "about": "“Novel aryloxyphenyl-propanamines” (priority 2005, published 2007)",
  "origin": "cited, not measured here",
  "key": {"[1]": {"details": "humans, FDA Talk Paper T04-60"}, "[2]": {"tested_on": "6-hydroxydopamine-lesion rats"}},
  "data": [
    {"smiles": "CNCC[C@@H](Oc1ccccc1C)c1ccccc1", "note": "[Compound 1, (R)-N-methyl-3-phenyl-3-(o-tolyloxy)propan-1-amine]", "values": [
      {"measurement": "hepatotoxicity", "setting": "[1]", "result": "rare but very severe hepatotoxicity"},
      {"measurement": "motor hyperactivity", "setting": "[2]", "result": "reductions in their motor hyperactivity"},
      {"measurement": "half life", "setting": "CYP2D6 poor metabolisers (PM)", "result": 62, "unit": "h"},
      {"measurement": "mean half life", "setting": "healthy volunteers, CYP2D6 extensive metabolizers (EM)", "result": 18, "unit": "h"},
      {"measurement": "increase of total exposure, measured as AUC0-τ", "setting": "poor metabolisers (PM) versus extensive metabolizers (EM)", "result": "8-10 fold"}
    ]}
  ]
}
